Measured values from patent US20250040552A1, “FUNGICIDAL COMPOSITIONS” (SYNGENTA CROP PROTECTION AG, priority 2021, published 2025).

Assays:
Alternaria solani = experiment: Example A1: Alternaria solani / tomato / leaf disc (early blight); format: in vivo; conditions: foliar, tomato leaf disks, compared to untreated control
Experimental: Example A1: Alternaria solani/Tomato/Leaf Disc (Early Blight) Tomato leaf disks cv. Baby are placed on agar in multiwell plates (24-well format) and sprayed with the formulated test compound diluted in water. The leaf disks are inoculated with a spore suspension of the fungus 2 days after application. The inoculated leaf disks are incubated at 23° C./21° C. […] […].10, and X.11.

[1] = test system: Glomerella lagenarium (Colletotrichum lagenarium); experiment: Example A3: Glomerella lagenarium (Colletotrichum lagenarium) / liquid culture (anthracnose); format: cell-based; conditions: Colletotrichum orbiculare, compared to untreated control
Source text: Example A3: Glomerella lagenarium (Colletotrichum lagenarium)/Liquid Culture (Anthracnose) Conidia of the fungus from cryogenic storage are directly mixed into nutrient broth (PDB potato dextrose broth). […] […].10, and X.11.

[2] = test system: Blumeria graminis f. sp. tritici (Erysiphe graminis f. sp. tritici); experiment: Example A4: Blumeria graminis f. sp. tritici / wheat / leaf disc preventative (powdery mildew on wheat); format: in vivo; conditions: foliar, compared to untreated control
Source text: Example A4: Blumeria graminis f. Sp. Tritici (Erysiphe graminis f. Sp. Tritici)/Wheat/Leaf Disc Preventative (Powdery Mildew on Wheat) Wheat leaf segments cv. Kanzler are placed on agar in a multiwell plate (24-well format) and sprayed with the formulated test compound diluted in water. The leaf disks are inoculated by shaking powdery mildew infected plants above the test plates 1 day after application. […] […].10, and X.11.

[3] = test system: Monographella nivalis (Microdochium nivale); experiment: Example A6: Monographella nivalis (Microdochium nivale) / liquid culture (foot rot cereals); format: cell-based; conditions: compared to untreated control
Source text: Example A6: Monographella nivalis (Microdochium nivale)/Liquid Culture (Foot Rot Cereals) Conidia of the fungus from cryogenic storage are directly mixed into nutrient broth (PDB potato dextrose broth). […] […].10, and X.11.

[4] = test system: Puccinia recondita f. sp. tritici; experiment: Example A10: Puccinia recondita f. sp. tritici / wheat / leaf disc preventative (brown rust); format: in vivo; conditions: foliar, compared to untreated control
Experimental: Example A10: Puccinia recondita f. Sp. Tritici/Wheat/Leaf Disc Preventative (Brown Rust) Wheat leaf segments cv. Kanzler are placed on agar in multiwell plates (24-well format) and sprayed with the formulated test compound diluted in water. The leaf disks are inoculated with a spore suspension of the fungus 1 day after application. The inoculated leaf segments are incubated at 19° C. and 75% rh under a light regime of 12 h light/12 h darkness in a climate cabinet and the activity of a compound is assessed as percent disease control compared to untreated when an appropriate level of disease damage appears in untreated check leaf segments (7-9 days after application). […] […].10, and X.11.

[5] = test system: Magnaporthe grisea (Pyricularia oryzae); experiment: whole plant or invertebrate; format: in vivo; conditions: foliar, read-out: control of Magnaporthe grisea
Pyrenophora teres = experiment: Example A12: Pyrenophora teres / barley / leaf disc preventative (net blotch); format: in vivo; conditions: foliar, compared to untreated control
Experimental: Example A12: Pyrenophora teres/Barley/Leaf Disc Preventative (Net Blotch) Barley leaf segments cv. Hasso are placed on agar in a multiwell plate (24-well format) and sprayed with the formulated test compound diluted in water. The leaf […] inoculated with a spore suspension of the fungus 2 days after application. The inoculated leaf segments are incubated at 20° C. and 65% rh under a light regime of 12 h light/12 h darkness in a climate cabinet and the activity of a compound is assessed as disease control compared to untreated when an appropriate level of disease damage appears in untreated check leaf segments (5-7 days after application). […] […].10, and X.11.

Sclerotinia sclerotiorum = experiment: Example A13: Sclerotinia sclerotiorum / liquid culture (cottony rot); format: cell-based; conditions: 20 ppm, compared to untreated control

Row | SMILES | pest or weed control at 200 ppm (Alternaria solani) [%] | inhibition of growth at 20 ppm [1] [%] | pest or weed control at 200 ppm [2] [%] | inhibition of growth at 20 ppm [3] [%] | pest or weed control at 200 ppm [4] [%] | pest or weed control at 200 ppm [5] [%] | pest or weed control at 200 ppm (Pyrenophora teres) [%] | control of Sclerotinia sclerotiorum (Sclerotinia sclerotiorum)
1 | Cc1sc(N(C(=O)C2CCOC2)c2cc(F)nc(F)c2)nc1C(=O)N(C(=O)C1CCOC1)C1CCC1(C)C (centres unmarked) [Compound X.01, 2-[(2,6-difluoro-4-pyridyl)-(tetrahydrofuran-3-carbonyl)amino]-N-(2,2-dimethylcyclobutyl)-5-methyl-N-(tetrahydrofuran-3-carbonyl)thiazole-4-carboxamide] | ≥ 80 | ≥ 80 | ≥ 80 | ≥ 80 | ≥ 80 | ≥ 80 | ≥ 80 | 
2 | Cc1sc(N(C(=O)C2CCCO2)c2cc(F)nc(F)c2)nc1C(=O)NC1CCC1(C)C (centres unmarked) [X.02, 2-[(2,6-difluoro-4-pyridyl)-(tetrahydrofuran-2-carbonyl)amino]-N-(2,2-dimethylcyclobutyl)-5-methyl-thiazole-4-carboxamide] | ≥ 80 | ≥ 80 | ≥ 80 | ≥ 80 | ≥ 80 | ≥ 80 | ≥ 80 | 
3 | Cc1sc(N(C(=O)C2CCOC2)c2cc(F)nc(F)c2)nc1C(=O)NC1CCC1(C)C (centres unmarked) [X.03, 2-[(2,6-difluoro-4-pyridyl)-(tetrahydrofuran-3-carbonyl)amino]-N-(2,2-dimethylcyclobutyl)-5-methyl-thiazole-4-carboxamide] | ≥ 80 | ≥ 80 | ≥ 80 | ≥ 80 | ≥ 80 | ≥ 80 | ≥ 80 | 
4 | Cc1sc(N(C(=O)C2COC2)c2cc(F)nc(F)c2)nc1C(=O)NC1CCC1(C)C (centres unmarked) [X.04, 2-[(2,6-difluoro-4-pyridyl)-(oxetane-3-carbonyl)amino]-N-(2,2-dimethylcyclobutyl)-5-methyl-thiazole-4-carboxamide] | ≥ 80 | ≥ 80 | ≥ 80 | ≥ 80 | ≥ 80 | ≥ 80 | ≥ 80 | 
5 | Cc1sc(N(C(=O)C(C)OC(C)(C)C)c2cc(F)nc(F)c2)nc1C(=O)NC1CCC1(C)C (centres unmarked) [X.05, 2-[2-tert-butoxypropanoyl-(2,6-difluoro-4-pyridyl)amino]-N-(2,2-dimethylcyclobutyl)-5-methyl-thiazole-4-carboxamide] | ≥ 80 |  | ≥ 80 | ≥ 80 | ≥ 80 | ≥ 80 | ≥ 80 | 
6 | Cc1sc(N(C(=O)C(C)OC(C)C)c2cc(F)nc(F)c2)nc1C(=O)NC1CCC1(C)C (centres unmarked) [X.06, 2-[(2,6-difluoro-4-pyridyl)-(2-isopropoxypropanoyl)amino]-N-(2,2-dimethylcyclobutyl)-5-methyl-thiazole-4-carboxamide] | ≥ 80 | ≥ 80 | ≥ 80 | ≥ 80 | ≥ 80 | ≥ 80 | ≥ 80 | 
7 | Cc1sc(N(C(=O)COC(C)(C)C)c2cc(F)nc(F)c2)nc1C(=O)NC1CCC1(C)C (centres unmarked) [X.07, 2-[(2-tert-butoxyacetyl)-(2,6-difluoro-4-pyridyl)amino]-N-(2,2-dimethylcyclobutyl)-5-methyl-thiazole-4-carboxamide] |  |  | ≥ 80 |  |  | ≥ 80 |  | 
8 | Cc1sc(N(C(=O)COC(C)C)c2cc(F)nc(F)c2)nc1C(=O)NC1CCC1(C)C (centres unmarked) [X.08, 2-[(2,6-difluoro-4-pyridyl)-(2-isopropoxyacetyl)amino]-N-(2,2-dimethylcyclobutyl)-5-methyl-thiazole-4-carboxamide] |  |  | ≥ 80 |  |  | ≥ 80 |  | 
9 | COC(C)C(=O)N(c1cc(F)nc(F)c1)c1nc(C(=O)NC2CCC2(C)C)c(C)s1 (centres unmarked) [X.09, 2-[(2,6-difluoro-4-pyridyl)-(2-methoxypropanoyl)amino]-N-(2,2-dimethylcyclobutyl)-5-methyl-thiazole-4-carboxamide] | ≥ 80 | ≥ 80 | ≥ 80 | ≥ 80 | ≥ 80 | ≥ 80 | ≥ 80 | 
10 | Cc1sc(N(C(=O)C(C)S(C)(=O)=O)c2cc(F)nc(F)c2)nc1C(=O)NC1CCC1(C)C (centres unmarked) [X.10, 2-[(2,6-difluoro-4-pyridyl)-(2-methylsulfonylpropanoyl)amino]-N-(2,2-dimethylcyclobutyl)-5-methyl-thiazole-4-carboxamide] | ≥ 80 | ≥ 80 | ≥ 80 | ≥ 80 |  | ≥ 80 | ≥ 80 | at least 80%
11 | Cc1sc(N(C(=O)C2CCOCC2)c2cc(F)nc(F)c2)nc1C(=O)NC1CCC1(C)C (centres unmarked) [X.11, 2-[(2,6-difluoro-4-pyridyl)-(tetrahydropyran-4-carbonyl)amino]-N-(2,2-dimethylcyclobutyl)-5-methyl-thiazole-4-carboxamide] | ≥ 80 | ≥ 80 | ≥ 80 | ≥ 80 | ≥ 80 |  | ≥ 80 | 
